Assay results reported in patent publication US9643967B2, “Pyrrolo[3,2-c]pyridine derivatives as TLR inhibitors” (TAKEDA PHARMACEUTICAL COMPANY LIMITED, priority 2013, dated 2017).

Molecular target: T1, hTLR9 (Homo sapiens, UniProt Q9NR96)
T1 construct: expressed in transfected cells; host or cells: HEK-Blue-hTLR9 cells (HEK293)
T1 sequence (Q9NR96 26-1032): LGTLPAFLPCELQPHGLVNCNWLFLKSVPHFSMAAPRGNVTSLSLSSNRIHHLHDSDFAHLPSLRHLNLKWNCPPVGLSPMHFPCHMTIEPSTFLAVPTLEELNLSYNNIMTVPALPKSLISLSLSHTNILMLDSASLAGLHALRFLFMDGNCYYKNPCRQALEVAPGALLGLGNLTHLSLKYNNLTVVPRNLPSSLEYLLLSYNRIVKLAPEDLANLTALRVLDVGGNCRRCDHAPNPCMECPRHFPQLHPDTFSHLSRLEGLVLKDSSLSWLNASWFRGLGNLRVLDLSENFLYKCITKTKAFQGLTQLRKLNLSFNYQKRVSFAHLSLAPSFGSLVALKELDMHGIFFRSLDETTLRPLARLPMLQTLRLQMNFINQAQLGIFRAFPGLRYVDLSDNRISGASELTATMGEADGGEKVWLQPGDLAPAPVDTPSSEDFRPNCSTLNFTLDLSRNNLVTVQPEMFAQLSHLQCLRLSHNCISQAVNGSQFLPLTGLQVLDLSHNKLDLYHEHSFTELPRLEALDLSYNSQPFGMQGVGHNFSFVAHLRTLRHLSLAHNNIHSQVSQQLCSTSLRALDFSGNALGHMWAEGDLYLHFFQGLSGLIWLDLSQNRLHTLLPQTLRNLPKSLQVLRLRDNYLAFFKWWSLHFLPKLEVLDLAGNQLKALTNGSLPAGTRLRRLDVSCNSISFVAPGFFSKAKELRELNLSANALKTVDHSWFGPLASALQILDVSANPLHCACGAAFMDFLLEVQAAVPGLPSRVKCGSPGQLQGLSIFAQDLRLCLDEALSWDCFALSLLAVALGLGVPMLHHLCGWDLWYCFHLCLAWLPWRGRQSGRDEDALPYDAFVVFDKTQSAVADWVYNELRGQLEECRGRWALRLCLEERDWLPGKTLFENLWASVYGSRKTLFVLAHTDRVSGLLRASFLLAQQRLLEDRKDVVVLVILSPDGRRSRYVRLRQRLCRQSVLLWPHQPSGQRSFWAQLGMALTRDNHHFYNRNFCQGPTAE
Assay: hTLR9 antagonism (SEAP inhibition assay) in HEK-Blue-hTLR9 (HEK293) cells, ODN-2006 stimulated
Format: cell-based
Details: SEAP, HEK-Blue-hTLR9 cells; for inhibition at 1 µM: HEK-Blue hTLR9, 1 μM, read-out: hTLR9 inhibitory activity (% at 1 μM)

Structure (SMILES) | inhibition at 1 µM [%] | hTLR9 inhibitory activity (% at 1 μM) (1 μM) [%]
Cc1cc2c(cc(CCN3CCOCC3)n2C)c(-c2ccc(N3CCN(C(C)C)CC3)c(F)c2)n1 [Example B14, 4-[2-[4-[3-fluoro-4-(4-isopropylpiperazin-1-yl)phenyl]-1,6-dimethyl-pyrrolo[3,2-c]pyridin-2-yl]ethyl]morpholine] | 88.7 | 
Cc1cc2c(cc(CCN3CCOCC3)n2C)c(-c2ccc(N3CCN(C(C)C)CC3)cc2C)n1 [Example B15, 4-[2-[4-[4-(4-isopropylpiperazin-1-yl)-2-methyl-phenyl]-1,6-dimethyl-pyrrolo[3,2-c]pyridin-2-yl]ethyl]morpholine] | 93.3 | 
Cc1cc2c(cc(CCN3CCOCC3)n2C)c(-c2ccc(N3CCN(C(C)C)CC3)c(C)c2)n1 [Example B16, 4-[2-[4-[4-(4-isopropylpiperazin-1-yl)-3-methyl-phenyl]-1,6-dimethyl-pyrrolo[3,2-c]pyridin-2-yl]ethyl]morpholine] | 91 | 
Cc1cc2c(cc(CCN3CCOCC3)n2C)c(-c2ccc(N3CCN(C(C)C)CC3)cc2C(F)(F)F)n1 [Example B17, 4-[2-[4-[4-(4-isopropylpiperazin-1-yl)-2-(trifluoromethyl)phenyl]-1,6-dimethyl-pyrrolo[3,2-c]pyridin-2-yl]ethyl]morpholine] | 91.5 | 
Cc1cc2c(cc(CCN3CCOCC3)n2C)c(-c2ccc(N3CCN(C(C)C)CC3)c(C(F)(F)F)c2)n1 [Example B18, 4-[2-[4-[4-(4-isopropylpiperazin-1-yl)-3-(trifluoromethyl)phenyl]-1,6-dimethyl-pyrrolo[3,2-c]pyridin-2-yl]ethyl]morpholine] | 99.3 | 
Cc1cc2c(cc(CCN3CCOCC3)n2C)c(-c2ccc(N3CCN(C(C)C)CC3)cc2F)n1 [Example B19, 4-[2-[4-[2-fluoro-4-(4-isopropylpiperazin-1-yl)phenyl]-1,6-dimethyl-pyrrolo[3,2-c]pyridin-2-yl]ethyl]morpholine] | 100 | 
COc1cc(N2CCN(C(C)C)CC2)ccc1-c1nc(C)cc2c1cc(CCN1CCOCC1)n2C [Example B20, 4-[2-[4-[4-(4-isopropylpiperazin-1-yl)-2-methoxy-phenyl]-1,6-dimethyl-pyrrolo[3,2-c]pyridin-2-yl]ethyl]morpholine] | 100 | 
Cc1cc2c(cc(CCN3CCOCC3)n2C)c(-c2cccc(N3CCN(C(C)C)CC3)c2)n1 [Example B21, 4-[2-[4-[3-(4-isopropylpiperazin-1-yl)phenyl]-1,6-dimethyl-pyrrolo[3,2-c]pyridin-2-yl]ethyl]morpholine] | 100 | 
COc1cc(-c2nc(C)cc3c2cc(CCN2CCOCC2)n3C)ccc1N1CCN(C(C)C)CC1 [Example B22, 4-[2-[4-[4-(4-isopropylpiperazin-1-yl)-3-methoxy-phenyl]-1,6-dimethyl-pyrrolo[3,2-c]pyridin-2-yl]ethyl]morpholine] | 99.7 | 
Cc1cc2c(cc(CCN3CCOCC3)n2C)c(-c2ccc(N3CCN(C(C)C)[C@@H](C)C3)cc2)n1 [Example B23, 4-[2-[4-[4-[(3S)-4-isopropyl-3-methyl-piperazin-1-yl]phenyl]-1,6-dimethyl-pyrrolo[3,2-c]pyridin-2-yl]ethyl]morpholine] | 99.2 | 
Cc1cc2c(cc(CCN3CCOCC3)n2C)c(C2CCC(N3CCN(C(C)C)CC3)CC2)n1 (stereo not shown) [Example B26, 4-[2-[4-[4-(4-isopropylpiperazin-1-yl)cyclohexyl]-1,6-dimethyl-pyrrolo[3,2-c]pyridin-2-yl]ethyl]morpholine] | 89.9 | 
Cc1cc2c(cc(CCN3CCOCC3)n2C)c(C2CCC(N3CCN(C(C)C)CC3)CC2)n1 (stereo not shown) [Example B27, 4-[2-[4-[4-(4-isopropylpiperazin-1-yl)cyclohexyl]-1,6-dimethyl-pyrrolo[3,2-c]pyridin-2-yl]ethyl]morpholine] |  | 95.8
Cc1cc2c(cc(CCN3CCOCC3)n2C)c(-c2ccc(C3CCN(C(C)C)CC3)cc2)n1 [Example B31, 4-[2-[4-[4-(1-isopropyl-4-piperidyl)phenyl]-1,6-dimethyl-pyrrolo[3,2-c]pyridin-2-yl]ethyl]morpholine] | 99.4 | 
